From patent US12016876B2, “Micro-RNAs and compositions comprising same for the treatment and diagnosis of serotonin-, adrenalin-, noradrenalin-, glutamate-, and corticotropin-releasing hormone- associated medical conditions” (Yeda Research and Development Co. Ltd., priority 2011, dated 2024)

Tests used:
mice [1] = test: Tail suspension test; type: in vivo
Description: The tail suspension test was performed in the TSE Tail Suspension Monitor (TSE Systems, Bad Homburg, Germany). Each mouse was taped by the tip of its tail, and suspended from the force sensor for 10 minutes. Time spent immobile and time spent struggling were calculated and recorded by the software based on pre-set thresholds.

miR-135b [2] = test: miR-135b levels after antidepressant treatment, real time PCR; conditions: for miR-135b levels in the RN: acute or chronic administration, 20 mg/kg i.p.
mice [3] = test: Forced swim test; type: in vivo
Description: The […] was performed as previously described [Krishnan V and Nestler E J, Nature (2008) 455: 894-902]. In short, the apparatus used was a plastic bucket, 18 cm of diameter, filled with 25° C. water to a depth of 15 cm. Each mouse was placed in the center of the bucket to initiate a 6 minutes video recorded test session. The duration of time spent immobile during the 2-6 minute of testing was automatically scored using Eto Vision XT (Noldus, Wageningen, Netherlands).

miR-135a = miR-135a levels after antidepressant treatment, real time PCR; conditions: for miR-135a levels in the RN: acute or chronic administration, 20 mg/kg i.p.
miR-19b = miR-19b levels in PFC after Reboxetine; type: in vivo, mice
Description: (§1) Mice received i.p. injection of tricyclic-Imipramine, or SSRI-Fluoxetine, or NRI-Reboxetine (20 mg/kg in saline) or saline.
(§2) These animals will be also tested for anxiety like behavior, locomotor activity and memory performance. Furthermore, the levels of expression of miR-19a and miR-19b are examined in different regions of interest (E.G the hippocampus, amygdala and forebrain) following an acute and chronic systemic treatment with the Noradrenaline reuptake inhibitor Reboxetine in WT mice.

miR-19a = miR-19a levels in PFC after Reboxetine; type: in vivo, mice
Description: as §1, §2

Slc6a4 3′UTR = test: Luciferase reporter assay, Slc6a4 3′UTR, HEK293T cells; type: cell-based, mouse; conditions: for repression of Slc6a4 3′UTR luciferase reporter: miR over-expressing vector vs empty vector, HEK293T; for repression with Slc6a4 3′UTR mutated in miR-135 seed match: mutated 3′UTR lacking miR-135 seed match
Excerpt: (§3) 3′UTR sequences of Slc6a4, Htr1a, MaoA and Tph2 were PCR amplified from mouse genomic DNA, or total brain cDNA. 3′UTR PCR fragments were ligated into pGEM-T easy vector (Promega) according to the manufacturer's guidelines, and further subcloned into a single NotI site at the 3′ end of luciferase in the Psicheck2 reporter plasmid (Promega). Mutated 3′ UTR sequences, lacking miR-135 seed sequences, were synthesized with primers overhangs across the seed match sequence. Cloning orientation was verified by diagnostic cuts and by sequencing.
(§4) HEK293T cells were grown on poly-L-lysine in 48-well format to a 70-85% confluence and transfected using Polyethyleneimine with the following plasmids: 5 ng of Psicheck2-3′UTR plasmid and 215 ng of over-expressing vector for a specific miRNA, or empty-miR-vec over-expression plasmids. 24 hours following transfection cells were lysed and luciferase reporters activity were assayed as previously described [Chen A. et al. Mol Endocrinol (2005) 19: 441-58]. Renilla luciferase values were normalized to control firefly luciferase levels (transcribed from the same vector but not affected by 3′UTR tested) and averaged across six well repetitions per condition.

Htr1a 3′UTR = test: Luciferase reporter assay, Htr1a 3′UTR, HEK293T cells; type: cell-based, mouse; conditions: for seed matches through which Htr1a 3′UTR is repressed: Htr1a miR-135 seed matches mutated individually or both; for repression of Htr1a 3′UTR luciferase reporter: miR over-expressing vector vs empty vector, HEK293T
Excerpt: as §3, §4
3′UTR sequence of Htr1a was PCR amplified from mouse genomic DNA. 3′UTR PCR fragments were ligated into pGEM-T easy vector (Promega) according to the manufacturer's guidelines, and further subcloned into a single NotI site at the 3′ end of luciferase in the Psicheck2 reporter plasmid (Promega). Cloning orientation was verified by diagnostic cuts and by sequencing.
as §4, with “plasmids:” for “plasmids: 5 ng of”, “Psicheck2-3′UTR plasmid, pre-mmu-miR-182 over-expression in pEGFP” for “Psicheck2-3′UTR”, “plasmid” for “plasmid and 215 ng of over-expressing vector for a specific miRNA,”, “pEGFP plasmid alone (clontech).” for “empty-miR-vec over-expression plasmids.”

miR-135b [4] = test: Lentiviral over-expression of miR-135b in RN, real time PCR; conditions: lentiviruses over-expressing miR-135b injected into RN, vs control lentiviruses
mice [5] = test: Home cage locomotor activity; type: in vivo; conditions: lentiviral miR-135b over-expression in RN
Description: To control for the possibility of behavioral effects originating from differences in ambulatory movement, locomotor activity of mice was examined over a 48 hours period, which proceeded a few days of habituation. Mice were single housed in specialized home cages and locomotion was measured using the InfraMot system (TSE Systems, Bad Hamburg, Germany).

Dscam 3′UTR = test: Luciferase assay, Dscam 3′UTR, N2a cells; type: cell-based
Excerpt: (§5) Using a luciferase assay, eleven predicted target genes of miR182, chosen after extensive bioinformatics, were examined (FIG. 27A).

miR-182 = miR-182 over-expression lentiviruses in N2a cell line, real time PCR; conditions: N2a cells infected with over-expression lentiviruses vs control
L1cam 3′UTR = test: Luciferase assay, L1cam 3′UTR, N2a cells; type: cell-based
Description: as §5
(§6) Similar verification for Dscam and Htr1a with mutated 3′UTR are performed.

Tsnax 3′UTR = test: Luciferase assay, Tsnax 3′UTR, N2a cells; type: cell-based
Description: as §5, §6

[6] = acute and chronic administration
[7] = chronic administration (18 days)

CNCCC(Oc1ccc(C(F)(F)F)cc1)c1ccccc1 (stereo not drawn) [Fluoxetine]
immobility time, tail suspension test (mice [1]; SSRI treatment vs basal, miR135KD and control KD mice): decrease in immobility time
miR135b levels in the AMY (miR-135b [2]; acute administration): upregulated
miR135b levels in the PFC (miR-135b [2]; acute administration): upregulated
circulating miR-135b levels in plasma (miR-135b [2]; [6]): no effect
miR-135b levels in the RN (miR-135b [2]): unaltered
miR135b levels in the AMY (miR-135b [2]; chronic administration): not by chronic administration
miR135b levels in the PFC (miR-135b [2]; chronic administration): decreased
immobility time, forced swim test (mice [3]; SSRI treatment, miR135KD and control KD mice): reduced
miR135a levels in the AMY (miR-135a; acute administration): upregulated
miR135a levels in the PFC (miR-135a; acute administration): not significantly altered
circulating miR-135a levels in plasma (miR-135a; [6]): robust decrease
miR-135a levels in the RN (miR-135a): robust increase
miR135a levels in the AMY (miR-135a; chronic administration): not by chronic administration
miR135a levels in the PFC (miR-135a; chronic administration): decreased

CN(C)CCCN1c2ccccc2CCc2ccccc21 [Imipramine]
miR-135b levels in the RN (miR-135b [2]): increased
miR-135a levels in the RN (miR-135a): increased

CCOc1ccccc1OC(c1ccccc1)C1CNCCO1 (stereo not drawn) [Reboxetine]
miR-19b levels in the PFC (miR-19b; acute administration (once)): down regulated
miR-19b levels in the PFC (miR-19b; [7]): upregulated
miR-19a levels in the PFC (miR-19a; acute administration (once)): down regulated
miR-19a levels in the PFC (miR-19a; [7]): upregulated
miR135b levels in the AMY (miR-135b [2]; acute administration): upregulated
miR135b levels in the PFC (miR-135b [2]; acute administration): upregulated
miR-135b levels in the RN (miR-135b [2]): unaltered
miR135b levels in the AMY (miR-135b [2]; chronic administration): not by chronic administration
miR135a levels in the AMY (miR-135a; acute administration): upregulated
miR135a levels in the PFC (miR-135a; acute administration): not significantly altered
miR-135a levels in the RN (miR-135a): not
miR135a levels in the AMY (miR-135a; chronic administration): not by chronic administration

miR-135a: microRNA over-expressed from a vector; SEQ ID NO: 24 (AGUGUAUCCUUAUUUUUCGGUAU; listed as Mus musculus)
repression of Slc6a4 3′UTR luciferase reporter (Slc6a4 3′UTR): approximately 30%
repression with Slc6a4 3′UTR mutated in miR-135 seed match (Slc6a4 3′UTR): fully blocked
seed matches through which Htr1a 3′UTR is repressed (Htr1a 3′UTR): via the distal and not the proximal seed match
repression of Htr1a 3′UTR luciferase reporter (Htr1a 3′UTR): approximately 30%

miR-135b: microRNA over-expressed from plasmid or neuron-specific lentivirus (pre-miR-135b); SEQ ID NO: 26 (AGUGUAUCCUUACUUUUCGGUAU; listed as Mus musculus)
repression of Slc6a4 3′UTR luciferase reporter (Slc6a4 3′UTR): approximately 50%
repression with Slc6a4 3′UTR mutated in miR-135 seed match (Slc6a4 3′UTR): fully blocked
immobility time, tail suspension test (mice [1]; lentiviral miR-135b over-expression in RN, after chronic social defeat, last 5 min): reduced immobility time
induction of miR-135b levels in RN (miR-135b [4]): 10 fold
home cage locomotion (mice [5]): without any observed change
immobility time, forced swim test (mice [3]; lentiviral miR-135b over-expression in RN, after chronic social defeat): reduced immobility time
seed matches through which Htr1a 3′UTR is repressed (Htr1a 3′UTR): via both predicted sites
repression of Htr1a 3′UTR luciferase reporter (Htr1a 3′UTR): approximately 50%

B1: miR-335: microRNA over-expressed from a vector (nucleic acid, listed as Homo sapiens)
chain 1: UGUUUUGAGCGGGGGUCAAGAGCAAUAACGAAAAAUGUUUGUCAUAAACCGUUUUUCAUUAUUGCUCCUGACCUCCUCUCAUUUGCUAUAUUCA
chain 2: UCAAGAGCAAUAACGAAAAAUGU
repression of Htr1a 3′UTR luciferase reporter (Htr1a 3′UTR): significant repression

B2: miR-182: pre-mmu-miR-182 over-expression in pEGFP plasmid or lentiviruses (nucleic acid, listed as Homo sapiens)
chain 1: GAGCUGCUUGCCUCCCCCCGUUUUUGGCAAUGGUAGAACUCACACUGGUGAGGUAACAGGAUCCGGUGGUUCUAGACUUGCCAACUAUGGGGCGAGGACUCAGCCGGCAC
chain 2: UUUGGCAAUGGUAGAACUCACACCG
effect on Dscam 3′UTR luciferase (Dscam 3′UTR): represoric effect
miR-182 levels in infected cells (miR-182): increased miR-182 levels
effect on L1cam 3′UTR luciferase (L1cam 3′UTR; N2a cells): represoric effect
effect on L1cam 3′UTR with mutated seed match (L1cam 3′UTR; mutated 3′UTR): abolished
repression of Htr1a 3′UTR luciferase reporter (Htr1a 3′UTR): strong repression
effect on Tsnax 3′UTR luciferase (Tsnax 3′UTR; N2a cells): represoric effect
effect on Tsnax 3′UTR with mutated seed match (Tsnax 3′UTR; mutated 3′UTR): abolished
